What was measured:
Type in all cases: binding
[1] = system: Millipore #07-449, anti-H3K27me3; assay: Histone peptide microarray, Millipore 07-449; settings: Millipore 07-449 (anti-H3K27me3) hits, average signal per peptide
CDYL2 chromo = target: T1, CDYL2 chromo (Homo sapiens, UniProt Q8N8U2); assay: Histone peptide microarray, CDYL2 chromo; settings: normalized histone peptide array signal, hits; hybridization with 1 M CDYL2 chromo (so in the source); two subarrays
T1 construct: 1-75; made in house; host or cells: E. coli BL21
T1 sequence (Q8N8U2 1-75): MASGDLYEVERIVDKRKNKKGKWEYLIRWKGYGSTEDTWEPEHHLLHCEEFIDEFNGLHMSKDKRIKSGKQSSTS
Protocol: (§1) Peptide microarrays were fabricated using an Aushon 2470 microarrayer and used as described ([Cornett et al., 2017]) with the following modifications. Protein and antibody hybridization steps were performed in buffer containing 25 mM HEPES pH 7.5, 100 mM NaCl, 0.5% BSA (w/v), and 0.1% NP-40. Slides were washed 3 × 5 min in PBS supplemented with 0.1% Tween-20 between each hybridization step. Antibodies used were primary anti-GST (Sigma #7781, 1:2,000 dilution) and an AlexaFluor 647-labeled secondary antibody (Life Technologies A-21245, 1:5,000 dilution). […] Full lists of peptides queried by array analysis are in Supplementary Table S2.

[2] = system: Active Motif #39161, anti-H3K9me3; assay: Histone peptide microarray, Active Motif 39161; settings: Active Motif 39161 (anti-H3K9me3) hits
[3] = system: ABClonal #A2355, anti-H3K4me1; assay: Histone peptide microarray, ABclonal A2355; settings: Abclonal A2355 (anti-H3K4me1) hits
Protocol: as §1

CST 9733 (anti-H3K27me3) = assay: Histone peptide microarray, CST 9733; settings: histone peptide array signal normalized to the highest peptide average per subarray, hits; CST 9733 LOT:14 dilution 1:5,000
[4] = system: Abcam #ab8895, anti-H3K4me1; assay: Histone peptide microarray, Abcam ab8895; settings: Abcam ab8895 (anti-H3K4me1) hits, average signal per peptide
MPP8 chromo = target: T2, MPP8 chromo (Homo sapiens, UniProt Q99549); assay: Histone peptide microarray, MPP8 chromo; settings: normalized histone peptide array signal, hits; hybridization with 1 M MPP8 chromo (so in the source); two subarrays
T2 construct: 50-118; made in house; host or cells: E. coli BL21
T2 sequence (Q99549 50-118): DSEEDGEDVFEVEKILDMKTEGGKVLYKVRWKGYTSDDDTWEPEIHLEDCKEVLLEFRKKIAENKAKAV
Protocol: as §1

53BP1 TTD = assay: Histone peptide microarray, 53BP1 TTD; settings: 53BP1 TTD hits, average signal per peptide
Method in brief: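 Printed histone peptide microarrays probed in 25 mM HEPES pH 7.5, 100 mM NaCl, 0.5% BSA, 0.1% NP-40, with 3 × 5 min PBS/0.1% Tween-20 washes between steps. GST-tagged protein detected via anti-GST (1:2,000) then AlexaFluor 647 secondary (1:5,000).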

Substance	Avg Signal [1]	Avg Signal (CDYL2 chromo)	Avg Signal [2]	Avg Signal [3]	Avg Signal (CST 9733 (anti-H3K27me3))	Avg Signal [4]	Avg Signal (MPP8 chromo)	Avg Signal (53BP1 TTD)
AGGK(Ac)AGK(Ac)DSGK(Ac)AKAKAVSR-Peg-Biot [H2A.Z.2K4acK7acK11ac]	0.003296	0.04723	0.02451	–	–	–	–	–
AR(Me2a)TKQTARK(Me2)STGGKAPRKQL-Peg-Biotin [H3.1R2me2aK9me2]	0.0074	0.425	–	0.01048	0.0005026	0.226	0.8941	–
ARTAQTARK(Me2)STGGKA-Peg-Biot [Peptide H3.1K4AK9me2]	–	–	0.007885	–	–	–	0.07994	–
ARTK(Ac)QTARK(Me2)STGGK(Ac)APRK(Ac)QL-K(Biot)-NH2 [H3.1K4acK9me2K14acK18ac]	0.005667	–	–	–	3.787e-5	0.0002166	0.2405	0.5858
ARTK(Ac)QTARK(Me3)STGGK(Ac)APRK(Ac)QL-K(Biot)-NH2 [H3.1K4acK9me3K14acK18ac]	0.04004	0.3091	0.7316	–	0.01317	–	0.4242	0.09657
ARTK(Ac)QTARK(Me3)STGGKAPRKQL-K(Biot)-NH2 [H3.1K4acK9me3]	0.01932	0.363	0.7317	–	0.00836	–	0.6556	–
ARTK(Ac)QTARK(Me)STGGK(Ac)APRK(Ac)QL-K(Biot)-NH2 [H3.1K4acK9me1K14acK18ac]	0.004673	–	–	–	–	0.5059	0.07749	0.1278
ARTK(Me2)QTARK(Me2)STGGKA-Peg-Biot [H3.1K4me2K9me2]	–	0.1337	0.001292	0.2431	0.0004919	0.2534	0.2515	–
ARTK(Me3)QTAR(Me2a)K(Me3)STGGKAPRKQL-K(Biot)-NH2 [H3.1K4me3R8me2aK9me3]	0.06329	0.3995	0.5927	–	0.01316	–	0.8021	–
ARTK(Me3)QTARK(Me2)STGGKA-Peg-Biot [H3.1K4me3K9me2]	0.04855	0.1809	0.02282	–	0.005297	0.004396	0.4645	–
ARTK(Me3)QTARKSTGGKAPRK(Ac)QL-K(Biot)-NH2 [H3.1K4me3K18ac]	0.03479	–	0.09175	0.001684	0.006885	0.01446	–	0.08895
ARTK(Me)QTARK(Me2)STGGKA-Peg-Biot [H3.1K4me1K9me2]	0.001269	0.2405	0.004399	0.6304	0.0001122	0.7578	0.4754	–
ARTKQTAR(Me2a)K(Me2)STGGKAPRKQL-K(Biot)-NH2 [H3.1R8me2aK9me2]	–	0.1889	0.006391	–	0.0007823	0.1269	0.6312	0.547
ARTKQTAR(Me2a)K(Me)STGGKAPRKQL-K(Biot)-NH2 [H3.1R8me2aK9me1]	–	–	0.00542	0.006716	–	0.513	0.4258	0.1501
ARTKQTAR(Me2s)K(Me2)STGGKAPRKQL-K(Biot)-NH2 [H3.1R8me2sK9me2]	–	0.1904	–	–	0.0002216	0.1111	0.6538	0.3791

Source: paper PMC7160673, “A Degenerate Peptide Library Approach to Reveal Sequence Determinants of Methyllysine-Driven Protein Interactions” (Frontiers in Cell and Developmental Biology, 2020)
